Laboratory results: patent US9790169B2, “IDO inhibitors” (BRISTOL-MYERS SQUIBB COMPANY, priority 2015, dated 2017)

Target: human IDO1 (Homo sapiens, UniProt P14902)
Assay: Assessment of human IDO-1 inhibitory activity in HEK cells (human IDO1/HEK293 cells, kynurenine read-out with Ehrlich reagent, absorbance 490 nm)
Format: cell-based
Parameters: expressed in transfected cells
Details: HEK Human IDO-1 cellular assay
Method in brief: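 Kynurenine output from stably IDO1-transfected HEK293 cells (10,000/well, phenol red-free RPMI, 10% FBS) after 20 h compound exposure at 37 °C. The reaction was stopped with 0.2% TCA and heated 30 min at 50 °C, then the supernatant was mixed with Ehrlich reagent and read at 490 nm. IC50 was set against DMSO and a 500 nM reference standard as 0 and 100% inhibition.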

Chain of human IDO1 (P14902 whole entry): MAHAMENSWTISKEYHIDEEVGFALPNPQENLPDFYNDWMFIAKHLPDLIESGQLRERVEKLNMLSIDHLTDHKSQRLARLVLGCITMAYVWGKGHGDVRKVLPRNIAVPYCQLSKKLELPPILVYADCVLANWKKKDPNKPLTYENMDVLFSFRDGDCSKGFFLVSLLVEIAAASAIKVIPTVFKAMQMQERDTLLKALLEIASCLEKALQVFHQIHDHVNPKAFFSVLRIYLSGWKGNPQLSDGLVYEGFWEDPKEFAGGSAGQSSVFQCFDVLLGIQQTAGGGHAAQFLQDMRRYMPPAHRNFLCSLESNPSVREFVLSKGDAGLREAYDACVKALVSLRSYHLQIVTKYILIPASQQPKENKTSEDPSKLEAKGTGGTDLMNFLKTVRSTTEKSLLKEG

Row | Compound | IC50 [nM]
1 | CCC(CC(=O)O)c1ccc(N2CCC[C@@H]2C(C)(C)O)c(Nc2ccc3c(c2)OC(F)(F)O3)c1 (single isomer, unassigned) [Example 781] | > 50
2 | CC[C@@H](CC(=O)O)c1ccc(N(CC)C2CCOCC2)c(Nc2cn3ccnc3cn2)c1 (single isomer, unassigned) [Example 483] | > 50
3 | CCc1ccc(Nc2cc(C(CC)CC(=O)O)ccc2N2CCC[C@H]2C(C)(C)O)cc1 (single isomer, unassigned) [Example 819] | > 50
4 | CCC(CC(=O)O)c1ccc(N(CC)C2CCOCC2)c(NC(=O)Nc2cnc(C)nc2)c1 (single isomer, unassigned) [Example 488 Enantiomer 1, 3-(4-(Ethyl(tetrahydro-2H-pyran-4-yl)amino)-3-(3-(2-methylpyrimidin-5-yl)ureido)phenyl)pentanoic acid] | > 50
5 | COCC(CC(=O)O)c1ccc(N(CC2CC2)C2CCOCC2)c(Nc2ccc3nc(C)sc3c2)c1 (single isomer, unassigned) [Example 689, 3-(4-((cyclopropylmethyl) (tetrahydro-2H-pyran-4-yl)amino)-3-((2-methylbenzo[d]thiazol-6-yl)amino)phenyl)-4-methoxybutanoic acid] | > 50
6 | CCN(c1ccc(C(CC(=O)O)c2ccccc2)cc1NC(=O)Nc1cc(C)on1)C1CCOCC1 (single isomer, unassigned) [Example 587, 3-(4-(ethyl(tetrahydro-2H-pyran-4-yl)amino)-3-(3-(5-methylisoxazol-3-yl)ureido)phenyl)-3-phenylpropanoic acid] | > 50
7 | CC[C@@H](CC(=O)O)c1ccc(N(CC)C2CCOCC2)c(Nc2cnc3cnccn23)c1 (single isomer, unassigned) [Example 472] | > 50
8 | COCC(CC(=O)O)c1ccc(N(CC2CC2)C2CCOCC2)c(Nc2ccc(C#N)cc2)c1 (single isomer, unassigned) [Example 687, 3-(3-((4-cyanophenyl)amino)-4-((cyclopropylmethyl) (tetrahydro-2H-pyran-4-yl)amino)phenyl)-4-methoxybutanoic acid] | < 50
9 | Cc1cc(NC(=O)Nc2cc(C(CC(=O)O)C3CC3)ccc2N(CC(C)C)C2CCOCC2)no1 (racemic) [Example 1200, (+/−)-3-Cyclopropyl-3-(4-(isobutyl(tetrahydro-2H-pyran-4-yl)amino)-3-(3-(5-methylisoxazol-3-yl)ureido)phenyl)propanoic acid] | < 50
10 | CC(C)CN(c1ccc(C(C)CC(=O)O)cc1Nc1nc2ccccc2o1)C1CCOCC1 (single isomer, unassigned) [Example 969, 3-(3-(Benzo[d]oxazol-2-ylamino)-4-(isobutyl(tetrahydro-2H-pyran-4-yl)amino)phenyl)butanoic acid] | > 50
11 | CCC(CC(=O)O)c1cc(F)c(N(CC(C)C)CC(C)C)c(NC(=O)Nc2ccc(C#N)c(Cl)c2)c1 (racemic) [Example 978, (+/−)-3-(3-(3-(3-chloro-4-cyanophenyl)ureido)-4-(diisobutylamino)-5-fluorophenyl)pentanoic acid] | < 50
12 | CC[C@@H](CC(=O)O)c1ccc(N2CCOC[C@@H]2C(C)C)c(NC(=O)Nc2ccc(Cl)cc2F)c1 (single isomer, unassigned) [Example 75] | < 50
13 | CC[C@H](CC(=O)O)c1ccc(N(CC)C2CCOCC2)c(Nc2ccc3nc(C)sc3c2)c1 (single isomer, unassigned) [Example 524] | < 50
14 | CC[C@@H](CC(=O)O)c1ccc(N(CC)C2CCOCC2)c(NC(=O)Nc2ccc(OC)cc2)c1 (single isomer, unassigned) [Example 492] | < 50
15 | CC[C@H](CC(=O)O)c1ccc(N2C[C@@H](C)O[C@@H](C)C2)c(Nc2ccc(Cl)cc2)c1 (single isomer, unassigned) [Example 761] | < 50
16 | Cc1ccc(NC(=O)Nc2cc(C(C)CC(=O)O)ccc2N(CC(C)C)C2CCOCC2)cc1 (single isomer, unassigned) [Example 958, 3-(4-(Isobutyl(tetrahydro-2H-pyran-4-yl)amino)-3-(3-(p-tolyl)ureido)phenyl)butanoic acid] | < 50
17 | CCOc1ncc(Nc2cc([C@@H](CC)CC(=O)O)ccc2N(CC(C)(C)O)C2CCOCC2)cn1 (single isomer, unassigned) [Example 197] | > 50
18 | CCN(c1ccc(C(C)CC(=O)O)cc1NC(=O)Nc1ccccc1F)C1CCOCC1 (single isomer, unassigned) [Example 640, 3-(4-(ethyl(tetrahydro-2H-pyran-4-yl)amino)-3-(3-(2-fluorophenyl)ureido)phenyl) butanoic acid] | > 50
19 | C[C@@H]1CN(c2ccc(C(C)(C)CC(=O)O)cc2Nc2ccc(F)cc2)C[C@H](C)O1 [Example 732, 3-(4-((2S,6R)-2,6-dimethylmorpholino)-3-((4-fluorophenyl)amino)phenyl)-3-methylbutanoic acid] | < 50

Now from value to molecule:

Row | IC50 [nM] | Compound
20 | < 5 | COCC(CC(=O)O)c1ccc(N(CC(C)C)C2CCCCC2)c(NC(=O)Nc2ccccc2F)c1 (racemic) [Example 983, (+/−)-3-(4-(Cyclohexyl(isobutyl)amino)-3-(3-(2-fluorophenyl)ureido)phenyl)-4-methoxybutanoic acid]
21 | < 50 | CC[C@@H](CC(=O)O)c1ccc(N(CC)C2CCOCC2)c(Nc2ccn3nc(C)c(F)c3c2)c1 (single isomer, unassigned) [Example 470]
22 | < 50 | CCC(CC(=O)O)c1ccc(N2C[C@@H]3C[C@H]2CN3C(=O)OC(C)(C)C)c(Nc2ccccc2)c1 (single isomer, unassigned) [Example 446]
23 | < 50 | CCOc1ccc(NC(=O)Nc2cc(C(COC)CC(=O)O)ccc2N(CC(C)C)C2CCOCC2)c(F)c1 (single isomer, unassigned) [Example 1222, 3-(3-(3-(4-Ethoxy-2-fluorophenyl)ureido)-4-(isobutyl(tetrahydro-2H-pyran-4-yl)amino)phenyl)-4-methoxybutanoic acid]
24 | < 5 | COCC(CC(=O)O)c1cc(F)c(N(CC(C)C)C2CCCCC2)c(NC(=O)Nc2ccc(OC(F)(F)F)cc2)c1 (single isomer, unassigned) [Example 1163, 3-(4-(cyclohexyl(isobutyl)amino)-3-fluoro-5-(3-(4-(trifluoromethoxy)phenyl)ureido)phenyl)-4-methoxybutanoic acid]
25 | < 50 | CCOc1ccc(Nc2cc([C@H](CC)CC(=O)O)ccc2N(CC(C)(C)O)C2CCOCC2)c(F)c1 (single isomer, unassigned) [Example 206]
26 | < 5 | CCCN(c1ccc([C@@H](COC)CC(=O)O)cc1Nc1ccc(F)cc1)C1CCOCC1 (single isomer, unassigned) [Example 562]
27 | < 50 | CCc1ccc(Nc2cc([C@H](CC)CC(=O)O)ccc2N(CC)C2CCCCC2)cc1 (single isomer, unassigned) [Example 288]
28 | < 5 | CCC(CC(=O)O)c1cc(F)c(N(CC(C)C)CC(C)C)c(NC(=O)Nc2ccc(Cl)cc2F)c1 (single isomer, unassigned) [981-1]
29 | < 5 | CCC(CC(=O)O)c1cc(NC(=O)Nc2ccc(C)cc2F)c(N(CC(C)C)C2CCCCC2)cc1F (racemic) [Example 1119, (±)-3-(4-(Cyclohexyl(isobutyl)amino)-2-fluoro-5-(3-(2-fluoro-4-methylphenyl)ureido)phenyl)pentanoic acid]
30 | < 50 | CC[C@H](CC(=O)O)c1ccc(N2CCC[C@H]2C(C)(C)F)c(NC(=O)Nc2ccc(Cl)cc2F)c1 (single isomer, unassigned) [Example 791]
31 | < 5 | CCC(CC(=O)O)c1ccc(N(CC)C2CCOCC2)c(NC(=O)Nc2ccc(OC)cc2F)c1 (racemic) [Example 608, 3-(4-(Ethyl(tetrahydro-2H-pyran-4-yl)amino)-3-(3-(2-fluoro-4-methoxyphenyl)ureido)phenyl)pentanoic acid]
32 | < 5 | CCC(CC(=O)O)c1cc(NC(=O)Nc2cc(C)no2)c(N(CC(C)C)C2CCCCC2)cc1F (single isomer, unassigned) [Example 1114, 3-(4-(Cyclohexyl(isobutyl)amino)-2-fluoro-5-(3-(3-methylisoxazol-5-yl)ureido)phenyl)pentanoic acid]
33 | < 5 | CCOc1ccc(NC(=O)Nc2cc(C(CC)CC(=O)O)c(F)cc2N(CC(C)C)CC(C)C)c(F)c1 (racemic) [Example 1137, (±)-3-(4-(Diisobutylamino)-5-(3-(4-ethoxy-2-fluorophenyl)ureido)-2-fluorophenyl)pentanoic acid]
34 | < 50 | CC(C)(CC(=O)O)c1ccc(N2CCC[C@H]2C(C)(C)O)c(Nc2ccc(Cl)cc2)c1 [Example 808, (S)-3-(3-((4-chlorophenyl)amino)-4-(2-(2-hydroxypropan-2-yl)pyrrolidin-1-yl)phenyl)-3-methylbutanoic acid]
35 | < 5 | CCC(CC(=O)O)c1ccc(N(CC)C2CCCOC2)c(Nc2ccc(C#N)cc2)c1 (single isomer, unassigned) [Example 70, 3-(3-((4-cyanophenyl)amino)-4-(ethyl(tetrahydro-2H-pyran-3-yl)amino)phenyl)pentanoic acid]
36 | < 5 | COCC(CC(=O)O)c1cc(F)c(N(CC(C)C)CC(C)C)c(NC(=O)Nc2ccc(OC)cc2F)c1 (single isomer, unassigned) [Example 1176, 3-(4-(Diisobutylamino)-3-fluoro-5-(3-(2-fluoro-4-methoxyphenyl)ureido)phenyl)-4-methoxybutanoic acid]
37 | < 5 | CCOc1ccc(NC(=O)Nc2cc(C(COC)CC(=O)O)cc(F)c2N(CC(C)C)C2CCCCC2)cc1 (single isomer, unassigned) [Example 1160, 3-(4-(cyclohexyl(isobutyl)amino)-3-(3-(4-ethoxyphenyl)ureido)-5-fluorophenyl)-4-methoxybutanoic acid]
38 | < 5 | Cc1ccc(CC(=O)Nc2cc(C(CC(=O)O)C3CC3)ccc2N(CC(C)C)C2CCCCC2)cc1 (single isomer, unassigned) [Example 1247, 3-(4-(Cyclohexyl(isobutyl)amino)-3-(2-(p-tolyl)acetamido)phenyl)-3-cyclopropylpropanoic acid]
